According to patent US20240117302A1, “COMPOSITIONS AND METHODS FOR SMALL MOLECULE BASED EXPANSION OF PLURIPOTENT STEM CELLS” (Trailhead Biosystems Inc., priority 2022, published 2024):

Legend:
Type in all cases: cell-based
[1] = system: pluripotent culture; assay: HD-DoE experiment for pluripotent maintenance (optimization of naïve, primed and pluripotent genes); settings: FIG. 6A
Description: A data-driven, High-Dimensional Design of Experiments (HD-DoE)-based perturbation of a pluripotent culture was used to assay several cellular signaling pathways known to function within the pluripotent state. The HD-DOE method was applied with the intent to find conditions for directly inducing the naïve state from the pluripotent stem cell state. This example utilizes a method previously described by Bukys et al. (2020) Iscience 23:101346, which employs computerized design geometries to simultaneously test multiple process inputs and provide for mathematical modeling of a deep effector/response space. The method allows for finding combinatorial signaling inputs that control a complex differentiation process and allows testing of multiple plausible critical process parameters impacting output responses, such as gene expression. […]
To develop a cell culture recipe for growing and maintaining PSCs in cell culture and for differentiation of stem cells to naïve state progenitors, the impact of agonists and antagonists of multiple signaling pathways (herein called effectors) on the expression of pre-selected genes was tested and modeled. The impact of each effector on gene expression level is defined by a parameter called factor contribution that is calculated for each effector during the modeling. […]

[2] = system: pluripotent cells; assay: Adherent culture validation of TB5i media and comparison with TB7i; settings: direct comparison between TB5i and TB7i, FIG. 7A-7B
Procedure: In an exemplary embodiment, a PSC culture, such as the CR01 iPSC line, is grown and maintained on vitronectin coated 6-well TC plates using a culture media of the present application, such as TB5i media. PSC cultures are generally passaged every 3-4 days and treated with agents for disrupting cell-to-cell adhesion, such as EDTA, or digestion enzymes, such as collagenase, accutase, trypsin, or […]. This can be accomplished by removing the media and washing each well of the TC plate with 2 ml of PBS. A 3-minute incubation in the presence of 5 mM EDTA can then be performed at 37 degrees C. Wells are then aspirated, and the cells are washed off from the plates and seeded in fresh media. Each well passaged is generally seeded onto 6 wells of a newly vitronectin-coated TC plate resulting in a 1 to 6 expansion of the iPSC line.

[3] = system: pluripotent culture; assay: HD-DoE experiment for E8 critical process parameter (CPP) media determination; settings: 1:1 F12/IMDM hybrid media, FIG. 3
Description: To monitor the differentiation state of a pluripotent culture and track the primed state, naïve state and any early lineage commitment biases that may arise during the culture process, a network consisting of 54 genes was chosen (FIG. 1). Other genes monitored throughout this series of experiments include TERT and KI67. Maximal TERT expression is needed to sustain the pluripotent state in both naïve and primed cells while KI67, a proliferation marker, is expected to increase in the naïve state. Housekeeping genes measured within this QS chip design are used to normalize the individual experimental runs. This network of genes was then monitored using an HD-DoE methodology (Bukys et al. (2020) Iscience 23:101346) as further described in Example 2 to enable in silico modelling of the pluripotent state.
An initial HD-DoE modelling experiment was designed to determine if any of the components within the Essential 8 (E8) media were critical for pluripotent maintenance. The results of this experiment are depicted in FIG. 2. E8 media components include HEPES, bicarbonate, selenium, ascorbic acid, transferrin, insulin, FGF2 and TGF-β. HEPES, bicarbonate and selenium were not considered in this HD-DoE design, because they are additives that are not specific for the maintenance of the pluripotent state but are involved in enabling the overall growth of any cells in culture. In addition, these components are present in most generic media formulations, whereas the initial HD-DoE experiment herein utilized a 1:1 F12/IMDM hybrid media already containing HEPES, bicarbonate and selenium. In addition to the E8 components, human leukemia inhibitory factor (hLIF), AICAR (AMPK pathway agonist), CHIR 99021 (Wnt agonist/[…] antagonist), Go6983 (PKC pathway antagonist), PD0325901 (MEK pathway antagonist), and Y27632 (ROCK inhibitor) were evaluated within this design (FIG. 2). These components were selected based on previous experiments indicating the potential contribution of these components to maintenance of the pluripotent state.
Whereas the overall pluripotent state was driven by Go6983, the naïve state was favored by Y27632.

[4] = system: pluripotent colony; assay: Protein additives assayed in the TB5i formulation, with immuno-histochemical validation; settings: additive in the TB5i formulation, FIG. 8A
Description: The protein additives FGF2, TGF-β1 and insulin were next assayed as additives in the TB5i formulation (FIG. 8A).

C[C@@H](N)[C@H]1CC[C@H](C(=O)Nc2ccncc2)CC1 [Y27632]
criticality to the process (sequential optimization of all naïve, primed and pluripotent genes) [1]: neither the cAMP activator forskolin, nor the ROCK pathway inhibitor were critical | benefit to the overall growth of pluripotent cells [2]: neither forskolin, nor Y27632 were beneficial | contribution to maintaining the pluripotent state [3]: potentially aid in pluripotent maintenance

FGF2
growth rate of the culture [4]: increased the growth rate

insulin
effect on the culture [4]: little, if any beneficial effect

TGF-β1
morphology of the pluripotent colony edges [4]: sustained normal morphology

COc1ccc2c(c1)c(C1=C(c3c[nH]c4ccccc34)C(=O)NC1=O)cn2CCCN(C)C [Go6983]
contribution to maintaining the pluripotent state [3]: potentially aid in pluripotent maintenance

O=C1O[C@H]([C@@H](O)CO)C(O)=C1O [ascorbic acid]
contribution to maintaining the pluripotent state [3]: beneficial in maintaining the pluripotent state

transferrin
contribution to maintaining the pluripotent state [3]: beneficial in maintaining the pluripotent state
